Assay results taken from patent US11547697B2, “Heterocyclic compounds and uses thereof” (MILLENNIUM PHARMACEUTICALS, INC., priority 2009, dated 2023).
Entries after “also recorded” stand apart in the source; their conditions may differ.

Experiments:
[1] = tested on: pAKT(S473), pAKT(T308), pS6, p4E-BP1 in MDA-MB-361, T47D, PC3 cells; experiment: Inhibition of PI3K pathway in tumor cells (Western blot of pAKT, pS6, p4E-BP1); format: cell-based; settings: FIG. 2; 0.1 μM, 1 μM, and 10 μM, about 2 hours
Procedure: Cells comprising one or more mutations in PI3Kα, including but not limited to breast cancer cells (e.g., MDA-MB-361 and T47D), and cells comprising one or more mutations in PTEN including but not limited to prostate cancer cells (e.g., PC3), are typically grown in cell growth media such as DMEM supplemented with fetal bovine serum and/or antibiotics, and grown to confluency. Cells are then treated with various concentrations of test compound for about 2 hours and subsequently lysed in cell lysis buffer. Lysates are subjected to SDS-PAGE followed by Western blot analysis to detect downstream signaling markers, including but not limited to pAKT(S473), pAKT(T308), pS6, and p4E-BP1.

HCT116 cells = experiment: Cell arrest assay, alone and in combination with MEK inhibitor; format: cell-based, human
Procedure: Cells are then incubated in the presence of DMSO or inhibitor for 20 hours. The number of cells at each stage in the cell cycle is determined and expressed as a percent of the total, with an increase in the number of cells arrested at pre-GO/G1 indicating effective inhibition of cell cycle progression.

p110α/p85α = p110α/p85α (Homo sapiens (Human), UniProt P42336); experiment: PI 3-Kinase (human) HTRF assay, p110α/p85α; format: biochemical; settings: PI3K α compared with β, δ, γ
[2] = tested on: human umbilical vein endothelial cells (HUVEC); experiment: In vitro inhibition of angiogenesis, tube formation assay; format: cell-based; settings: FIG. 3
Procedure: Inhibition of angiogenesis in the presence of test compound is evaluated using a tube formation assay, such as by using a tube formation assay kit (e.g., commerically available from Invitrogen). Angiogenic capacity can be measured in vitro using an endothelial cell line, such as human umbilical vein endothelial cells (HUVEC). The assay is conducted according to the kit instructions, in the presence or absence of compound. Briefly, a gel matrix is applied to a cell culture surface, cells are added to the matrix-covered surface along with growth factors, with some samples also receiving an inhibitor compound, cells are incubated at 37° C. and 5% CO2 long enough for control samples (no compound added) to form tube structures (such as overnight), cells are stained using a cell-permeable dye (e.g., calcein), and cells are visualized to identify the degree of tube formation. Any decrease in tube formation relative to un-inhibited control cells is indicative of angiogenic inhibition. […] Based on doses tested and the corresponding degree of tube formation inhibition, IC50 values for tube formation are calculated. FIG. 3 also provides IC50 values for cell viability, which can be measured using any number of methods known in the art, such as staining methods that distinguish live from dead cells (e.g., Image-iT DEAD Green viability stain commercially available from Invitrogen).

[3] = tested on: 786-O cells, a human kidney carcinoma cell line; experiment: In vivo efficacy in 786-O xenograft (non-mutated PI3Kα); set-up: species or system mice; settings: FIG. 6
From the text: For example, a test compound is compared to a kinase inhibitor with specificity for mTor. […] FIG. 6 also provides biochemical potency data for the two compared inhibitors.

[4] = tested on: MDA-MB-361 (PI3Kα/HER2 carcinoma) tumors; experiment: In vivo efficacy in xenogenic mouse model of breast cancer
Procedure: Blood glucose is monitored periodically following administration of treatment. […] The effect of the compounds on the localization/viability of marginal zone B cells in the spleen is also evaluated at the conclusion of treatment.

p110γ = p110γ (Homo sapiens (Human), UniProt P48736); experiment: PI 3-Kinase (human) HTRF assay, p110γ; format: biochemical; settings: read-out: PI3K γ IC50
[5] = tested on: tumor cells with a PI3Kα mutation (e.g., MDA-MB-361 and T47D); experiment: Proliferation of tumor cells with PI3Kα mutation; format: cell-based

Chain of p110α/p85α (P42336 whole entry): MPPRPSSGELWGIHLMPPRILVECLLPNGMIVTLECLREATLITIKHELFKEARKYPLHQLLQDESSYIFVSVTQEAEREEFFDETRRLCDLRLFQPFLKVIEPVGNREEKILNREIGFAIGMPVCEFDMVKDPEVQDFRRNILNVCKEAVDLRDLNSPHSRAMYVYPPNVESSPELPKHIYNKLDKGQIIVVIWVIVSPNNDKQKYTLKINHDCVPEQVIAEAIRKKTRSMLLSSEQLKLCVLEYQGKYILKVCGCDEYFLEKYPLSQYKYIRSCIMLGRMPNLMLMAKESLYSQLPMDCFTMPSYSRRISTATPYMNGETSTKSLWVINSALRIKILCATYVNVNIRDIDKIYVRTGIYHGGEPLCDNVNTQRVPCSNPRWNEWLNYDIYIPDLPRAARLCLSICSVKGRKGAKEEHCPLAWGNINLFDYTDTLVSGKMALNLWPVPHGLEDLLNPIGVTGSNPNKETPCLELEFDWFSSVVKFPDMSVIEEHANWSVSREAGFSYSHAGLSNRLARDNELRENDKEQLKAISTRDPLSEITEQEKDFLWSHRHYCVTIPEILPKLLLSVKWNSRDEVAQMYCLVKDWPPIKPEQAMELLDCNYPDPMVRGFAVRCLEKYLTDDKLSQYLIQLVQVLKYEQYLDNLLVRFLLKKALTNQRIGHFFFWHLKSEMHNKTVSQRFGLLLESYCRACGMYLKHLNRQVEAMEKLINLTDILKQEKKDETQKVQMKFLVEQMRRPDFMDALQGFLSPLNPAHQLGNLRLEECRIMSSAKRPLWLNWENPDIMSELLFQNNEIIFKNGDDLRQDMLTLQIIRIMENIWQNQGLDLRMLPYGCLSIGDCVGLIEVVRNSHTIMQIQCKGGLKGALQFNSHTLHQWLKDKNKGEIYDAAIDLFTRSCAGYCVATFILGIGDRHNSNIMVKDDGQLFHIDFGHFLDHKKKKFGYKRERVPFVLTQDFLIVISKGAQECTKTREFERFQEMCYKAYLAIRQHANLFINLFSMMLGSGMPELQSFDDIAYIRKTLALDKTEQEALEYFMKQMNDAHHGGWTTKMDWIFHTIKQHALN
Chain of p110α/p85α (P27986 whole entry partner): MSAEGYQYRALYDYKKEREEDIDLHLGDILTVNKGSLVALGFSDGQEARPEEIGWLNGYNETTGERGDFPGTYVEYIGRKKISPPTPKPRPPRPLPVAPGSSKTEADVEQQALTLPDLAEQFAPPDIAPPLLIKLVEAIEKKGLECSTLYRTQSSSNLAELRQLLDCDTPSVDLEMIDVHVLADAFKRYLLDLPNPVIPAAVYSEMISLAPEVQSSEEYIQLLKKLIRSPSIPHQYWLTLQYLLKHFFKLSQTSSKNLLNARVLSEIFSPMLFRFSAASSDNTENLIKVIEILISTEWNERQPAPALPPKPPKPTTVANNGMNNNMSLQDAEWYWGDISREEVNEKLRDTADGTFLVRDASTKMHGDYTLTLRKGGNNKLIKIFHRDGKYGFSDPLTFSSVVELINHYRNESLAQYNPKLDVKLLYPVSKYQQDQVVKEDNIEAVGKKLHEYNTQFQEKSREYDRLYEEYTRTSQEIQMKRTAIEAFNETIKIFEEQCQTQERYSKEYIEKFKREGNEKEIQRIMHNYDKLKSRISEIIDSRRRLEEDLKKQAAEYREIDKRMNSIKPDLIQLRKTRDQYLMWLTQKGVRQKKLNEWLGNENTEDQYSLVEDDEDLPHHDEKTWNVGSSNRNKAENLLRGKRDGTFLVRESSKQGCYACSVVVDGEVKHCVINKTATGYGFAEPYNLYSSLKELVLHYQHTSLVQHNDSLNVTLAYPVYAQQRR
Chain of p110γ (P48736 whole entry): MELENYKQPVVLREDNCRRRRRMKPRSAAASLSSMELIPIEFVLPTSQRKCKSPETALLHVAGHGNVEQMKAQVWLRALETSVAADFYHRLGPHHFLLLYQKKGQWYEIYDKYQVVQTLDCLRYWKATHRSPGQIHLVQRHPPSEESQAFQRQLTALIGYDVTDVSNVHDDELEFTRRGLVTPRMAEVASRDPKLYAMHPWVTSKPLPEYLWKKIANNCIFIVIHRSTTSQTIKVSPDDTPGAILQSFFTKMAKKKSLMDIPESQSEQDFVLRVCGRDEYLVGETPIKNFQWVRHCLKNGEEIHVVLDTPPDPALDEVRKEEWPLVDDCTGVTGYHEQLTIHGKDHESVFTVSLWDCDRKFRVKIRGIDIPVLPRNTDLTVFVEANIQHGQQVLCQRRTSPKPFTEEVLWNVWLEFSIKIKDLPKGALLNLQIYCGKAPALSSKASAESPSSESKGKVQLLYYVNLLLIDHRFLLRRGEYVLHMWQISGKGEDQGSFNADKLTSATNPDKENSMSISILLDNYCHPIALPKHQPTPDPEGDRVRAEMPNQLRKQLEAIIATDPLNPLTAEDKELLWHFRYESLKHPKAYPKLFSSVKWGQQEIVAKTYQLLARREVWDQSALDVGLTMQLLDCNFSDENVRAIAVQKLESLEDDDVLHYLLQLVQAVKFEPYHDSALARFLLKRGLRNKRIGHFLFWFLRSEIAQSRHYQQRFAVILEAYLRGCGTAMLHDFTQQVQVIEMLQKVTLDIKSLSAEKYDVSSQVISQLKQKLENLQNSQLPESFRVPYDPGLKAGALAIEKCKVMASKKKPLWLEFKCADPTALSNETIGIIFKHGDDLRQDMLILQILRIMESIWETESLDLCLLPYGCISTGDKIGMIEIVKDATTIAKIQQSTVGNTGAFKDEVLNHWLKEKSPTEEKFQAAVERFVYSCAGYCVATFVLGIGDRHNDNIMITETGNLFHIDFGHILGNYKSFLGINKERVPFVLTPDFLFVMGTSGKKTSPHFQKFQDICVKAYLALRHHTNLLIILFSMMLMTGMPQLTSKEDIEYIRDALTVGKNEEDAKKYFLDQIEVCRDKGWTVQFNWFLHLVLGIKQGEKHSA

Nc1nc2cc(-c3ccc4ncc(C(=O)N5CCOCC5)n4c3)ccc2o1 [compound 54]
Inhibition of the PI3K pathway (downstream signaling markers) [1]: inhibits the PI3K pathway
Arrested cells (pre-GO/G1), percent of the total (HCT116 cells; 3 μM compound 54 combined with 0.3 μM MEK inhibitor (PD0325901), 20 hours, FIG. 7): 55%
Cell cycle arrest, single inhibitor versus DMSO control (HCT116 cells; 3 μM compound 54 or 0.3 μM PD0325901, 20 hours): some increase in cell cycle arrest by comparison to DMSO control
Combination effect with other (MEK) inhibitors (HCT116 cells; compound 54 plus MEK inhibitor): synergistic
Arrested cells expected by merely adding the individual effects (HCT116 cells; sum of 3 μM compound 54 alone and 0.3 μM MEK inhibitor alone, 20 hours): 40%
Specificity of PI3K α inhibition versus PI3K β, δ and γ (IC50, FIG. 1 / FIG. 3) (p110α/p85α): Inhibition of PI3K α at lower concentrations than those for β, δ, and γ; also recorded: specificity for PI3K α inhibition
Potency of angiogenesis inhibition (tube formation) compared with Pan-PI3K inhibitor [2]: comparable to higher potency
Anti-tumor activity in 786-O tumors [3]: still showing some anti-tumor activity, has decreased activity by comparison to that seen in the MDA derived tumors
Impact on blood glucose ([4]; MDA-MB-361 tumor-bearing nude mice, daily oral dosing, FIG. 4): without the impact on blood glucose
Kinase- and tumor growth-inhibition activity ([4]; MDA-MB-361 tumors in nude mice, 30 mpk or 60 mpk test compound, 70 mpk Pan-PI3K inhibitor, daily oral lavage, FIG. 4): comparable kinase- and tumor growth-inhibition activity to the Pan-PI3K inhibitor
Localization/viability of marginal zone B cells in the spleen ([4]; at conclusion of treatment, FIG. 5): does not affect localization/viability of marginal zone B cells
IC50 (p110γ): < 10 µM
Inhibition of proliferation of tumor cells with a PI3Kα mutation ([5]; FIG. 2): inhibits the PI3K pathway and the proliferation of tumor cells with a PI3Kα mutation
IC50 ([5]; Homo sapiens, T47D cells, read-out: T47D proliferation): < 10 µM
